Patent US9169254B2, “Spiroimidazolone derivative” (Chugai Seiyaku Kabushiki Kaisha, priority 2009, dated 2015)

These compounds were tested against T1, human PTH1 receptor (Homo sapiens, UniProt Q03431) (assay: In vitro cAMP signal activity in HKRK-B7 cells (LLC-PK1 cells overexpressing the human PTH1 receptor)). Settings: HKRK-B7 cells; compound at 1×10^−3 M; cAMP produced as percentage of that produced by hPTH(1-34) at 100 nM.
T1 sequence (Q03431 27-593): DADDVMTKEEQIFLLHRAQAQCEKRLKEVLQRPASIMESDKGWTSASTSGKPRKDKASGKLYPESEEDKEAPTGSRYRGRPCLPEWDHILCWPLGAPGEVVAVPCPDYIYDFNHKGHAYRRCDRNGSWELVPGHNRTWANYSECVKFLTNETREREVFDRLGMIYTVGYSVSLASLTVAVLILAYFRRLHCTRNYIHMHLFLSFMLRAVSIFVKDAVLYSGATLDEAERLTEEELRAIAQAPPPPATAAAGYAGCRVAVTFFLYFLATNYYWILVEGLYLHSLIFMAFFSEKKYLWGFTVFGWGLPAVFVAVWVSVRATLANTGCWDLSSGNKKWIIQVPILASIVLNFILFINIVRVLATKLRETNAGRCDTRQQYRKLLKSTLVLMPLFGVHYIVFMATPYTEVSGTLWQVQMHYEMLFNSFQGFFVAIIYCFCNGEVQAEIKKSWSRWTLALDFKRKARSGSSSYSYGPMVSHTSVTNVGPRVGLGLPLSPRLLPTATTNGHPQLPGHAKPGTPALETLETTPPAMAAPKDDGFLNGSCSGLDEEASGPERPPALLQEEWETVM
Format: cell-based

Q: For Cc1cc(C(=O)N2CCC(OC[C@H](O)CO)CC2)cc(C)c1CCS(=O)(=O)N1CCC2(CC1)N=C(CCCCCCCCC(F)(F)F)NC2=O [Compound 1184, 8-(2-{4-[4-((R)-2,3-dihydroxy-propoxy)-piperidine-1-carbonyl]-2,6-dimethyl-phenyl}-ethanesulfonyl)-2-(9,9,9-trifluoro-nonyl)-1,3,8-triaza-spiro[4.5]dec-1-en-4-one], which “cAMP production activity (%)” value is on record?
A: 108%

Q: With Cc1ccc(C(=O)N(C)C)cc1CCS(=O)(=O)N1CCC2(CC1)N=C(c1cccc(OC(F)(F)F)c1)NC2=O [Compound 412, 4,N,N-Trimethyl-3-{2-[4-oxo-2-(3-trifluoromethoxy-phenyl)-1,3,8-triaza-spiro[4.5]dec-1-ene-8-sulfonyl]-ethyl}-benzamide] as the compound, how does the “cAMP production activity (%)” value read?
A: 54%

Q: With Cc1cc(C(=O)N2CCC(C)(O)CC2)cc(C)c1/C=C/S(=O)(=O)N1CCC2(CC1)N=C(c1ccc3cc[nH]c3c1)NC2=O [Compound 1208, 8-{(E)-2-[4-(4-hydroxy-4-methyl-piperidine-1-carbonyl)-2,6-dimethyl-phenyl]-ethenesulfonyl}-2-(1H-indol-6-yl)-1,3,8-triaza-spiro[4.5]dec-1-en-4-one] as the compound, how does the “cAMP production activity (%)” value read?
A: 65%

Q: With Cc1cc(C(=O)N2CCC(C)(O)CC2)cc(C)c1/C=C/S(=O)(=O)N1CCC2(CC1)N=C(c1ccc(COc3cccc(C(F)(F)F)c3)cc1)NC2=O [Compound 1191, 8-{(E)-2-[4-(4-hydroxy-4-methyl-piperidine-1-carbonyl)-2,6-dimethyl-phenyl]-ethenesulfonyl}-2-[4-(3-trifluoromethyl-phenoxymethyl)-phenyl]-1,3,8-triaza-spiro[4.5]dec-1-en-4-one] as the compound, how does the “cAMP production activity (%)” value read?
A: 66%

Q: Which “cAMP production activity (%)” value does the source give for Cc1cc(C(=O)N2CCC[C@H]2C(F)(F)F)ccc1CCS(=O)(=O)N1CCC2(CC1)N=C(c1cccc(C(F)(F)F)c1)NC2=O [Compound 354, 8-{2-[2-methyl-4-((S)-2-trifluoromethyl-pyrrolidine-1-carbonyl)-phenyl]-ethanesulfonyl}-2-(3-trifluoromethyl-phenyl)-1,3,8-triaza-spiro[4.5]dec-1-en-4-one] here?
A: 27%

Q: Which “cAMP production activity (%)” value does the source give for O=C1NC(C2CCCCC2)=NC12CCN(S(=O)(=O)/C=C/c1cccc3cccnc13)CC2 [Compound 633, 2-Cyclohexyl-8-((E)-2-quinolin-8-yl-ethenesulfonyl)-1,3,8-triaza-spiro[4.5]dec-1-en-4-one] here?
A: 37%

Q: For Cc1cc(C(=O)N2CC(F)C2)cc(C)c1/C=C/S(=O)(=O)N1CCC2(CC1)N=C(c1cccc(OC(F)(F)F)c1)NC2=O [Compound 963, 8-{(E)-2-[4-(3-Fluoro-azetidine-1-carbonyl)-2,6-dimethyl-phenyl]-ethenesulfonyl}-2-(3-trifluoromethoxy-phenyl)-1,3,8-triaza-spiro[4.5]dec-1-en-4-one], which “cAMP production activity (%)” value is on record?
A: 16%

Q: For Cc1cc(C(=O)N2CCC(O)(CF)CC2)ccc1CCS(=O)(=O)N1CCC2(CC1)N=C([C@H]1CC[C@H](CC=C(F)F)CC1)NC2=O [Compound 974, 2-[4-(3,3-difluoro-allyl)-cyclohexyl]-8-{2-[4-(4-fluoromethyl-4-hydroxy-piperidine-1-carbonyl)-2-methyl-phenyl]-ethanesulfonyl}-1,3,8-triaza-spiro[4.5]dec-1-en-4-one], which “cAMP production activity (%)” value is on record?
A: 111%

Q: How did the “cAMP production activity (%)” value turn out when Cc1cc2[nH]ccc2cc1CCS(=O)(=O)N1CCC2(CC1)N=C(C1CCCCC1)NC2=O [Compound 837, 2-cyclohexyl-8-[2-(6-methyl-1H-indol-5-yl)-ethanesulfonyl]-1,3,8-triaza-spiro[4.5]dec-1-en-4-one] was run?
A: 66%

Q: Cc1cc(NC(=O)[C@@H](N)C(C)C)cc(C)c1/C=C/S(=O)(=O)N1CCC2(CC1)N=C(C1CCCCC1)NC2=O [Compound 735, (S)-2-Amino-N-{4-[(E)-2-(2-cyclohexyl-4-oxo-1,3,8-triaza-spiro[4.5]dec-1-ene-8-sulfonyl)-vinyl]-3,5-dimethyl-phenyl}-3-methyl-butylamide] was tested. Which “cAMP production activity (%)” value did it give?
A: 32%

Q: With CC(=O)N(C)c1ccc(/C=C/CS(=O)(=O)N2CCC3(CC2)N=C(C2CCC(C)CC2)NC3=O)c(C)c1 (stereo not drawn) [Compound 744, N-Methyl-N-(3-methyl-4-{(E)-3-[2-(4-methyl-cyclohexyl)-4-oxo-1,3,8-triaza-spiro[4.5]dec-1-ene-8-sulfonyl]-propenyl}-phenyl)-acetamide] as the compound, how does the “cAMP production activity (%)” value read?
A: 19%

Q: Which “cAMP production activity (%)” value does the source give for CCCS(=O)(=O)CCCCCC1=NC2(CCN(S(=O)(=O)CCc3c(C)cc(N(C)C(N)=O)cc3C)CC2)C(=O)N1 [Compound 1356, 1-[3,5-dimethyl-4-(2-{4-oxo-2-[5-(propane-1-sulfonyl)-pentyl]-1,3,8-triaza-spiro[4.5]dec-1-ene-8-sulfonyl}-ethyl)-phenyl]-1-methyl-urea] here?
A: 14%

Q: How did the “cAMP production activity (%)” value turn out when CCCCCc1ccc(C2=NC3(CCN(S(=O)(=O)CCc4c(C)cc(N(C)C(N)=O)cc4C)CC3)C(=O)N2)cc1 [Compound 1342, 1-(3,5-dimethyl-4-{2-[4-oxo-2-(4-pentyl-phenyl)-1,3,8-triaza-spiro[4.5]dec-1-ene-8-sulfonyl]-ethyl}-phenyl)-1-methyl-urea] was run?
A: 114%

Q: Which “cAMP production activity (%)” value does the source give for CC(=O)N(CC(F)(F)F)c1ccc(/C=C/S(=O)(=O)N2CCC3(CC2)N=C(c2cccc(OC(F)(F)F)c2)NC3=O)c(C)c1 [Compound 613, N-(3-methyl-4-{(E)-2-[4-oxo-2-(3-trifluoromethoxy-phenyl)-1,3,8-triaza-spiro[4.5]dec-1-ene-8-sulfonyl]-vinyl}-phenyl)-N-(2,2,2-trifluoro-ethyl)-acetamide] here?
A: 44%

Q: Which “cAMP production activity (%)” value does the source give for Cc1cc(C(=O)N2CCC(O)CC2)cc(C)c1/C=C/S(=O)(=O)N1CCC2(CC1)N=C(c1ccc(F)c(OCCCC(F)(F)C(F)(F)F)c1)NC2=O [Compound 1091, 2-[4-Fluoro-3-(4,4,5,5,5-pentafluoro-pentyloxy)-phenyl]-8-{(E)-2-[4-(4-hydroxy-piperidine-1-carbonyl)-2,6-dimethyl-phenyl]-ethenesulfonyl}-1,3,8-triaza-spiro[4.5]dec-1-en-4-one] here?
A: 118%

Q: Cc1cc(Nc2nccs2)cc(C)c1/C=C/S(=O)(=O)N1CCC2(CC1)N=C(C1CCCCC1)NC2=O [Compound 573, 2-cyclohexyl-8-{(E)-2-[2,6-dimethyl-4-(thiazol-2-ylamino)-phenyl]-ethenesulfonyl}-1,3,8-triaza-spiro[4.5]dec-1-en-4-one] was tested. Which “cAMP production activity (%)” value did it give?
A: 35%

Q: For CCc1cc(NC(C)=O)ccc1CCS(=O)(=O)N1CCC2(CC1)N=C(C1CCC(C)CC1)NC2=O (stereo not drawn) [Compound 752, N-(3-ethyl-4-{2-[2-(4-methyl-cyclohexyl)-4-oxo-1,3,8-triaza-spiro[4.5]dec-1-ene-8-sulfonyl]-ethyl}-phenyl)-acetamide], which “cAMP production activity (%)” value is on record?
A: 79%

Q: For O=C1NC(c2ccc(C(F)(F)F)cc2)=NC12CCN(S(=O)(=O)c1cccc(Cl)c1)CC2 [Compound 12, 8-(3-chloro-benzenesulfonyl)-2-(4-trifluoromethyl-phenyl)-1,3,8-triaza-spiro[4.5]dec-1-en-4-one], which “cAMP production activity (%)” value is on record?
A: 12%

Q: Cc1cc(C(=O)N(C)C)ccc1CCS(=O)(=O)N1CCC2(CC1)N=C(c1cc(C(F)(F)F)cc(C(F)(F)F)c1)NC2=O [Compound 82, 4-{2-[2-(3,5-bis-trifluoromethyl-phenyl)-4-oxo-1,3,8-triaza-spiro[4.5]dec-1-ene-8-sulfonyl]-ethyl}-3,N,N-trimethyl-benzamide] was tested. Which “cAMP production activity (%)” value did it give?
A: 65%

Q: Cc1cc(C(=O)N2CCC(C)(O)CC2)cc(C)c1/C=C/S(=O)(=O)N1CCC2(CC1)N=C(c1ccc(OC(C)(C)C(F)(F)F)c(C(F)(F)F)c1)NC2=O [Compound 1197, 8-{(E)-2-[4-(4-hydroxy-4-methyl-piperidine-1-carbonyl)-2,6-dimethyl-phenyl]-ethenesulfonyl}-2-[4-(2,2,2-trifluoro-1,1-dimethyl-ethoxy)-3-trifluoromethyl-phenyl]-1,3,8-triaza-spiro[4.5]dec-1-en-4-one] was tested. Which “cAMP production activity (%)” value did it give?
A: 74%

Q: CN(C)C(=O)n1ccc2c(/C=C/S(=O)(=O)N3CCC4(CC3)N=C(C3CCCCC3)NC4=O)cccc21 [Compound 189, 4-[(E)-2-(2-cyclohexyl-4-oxo-1,3,8-triaza-spiro[4.5]dec-1-ene-8-sulfonyl)-vinyl]-indole-1-carboxylic acid dimethylamide] was tested. Which “cAMP production activity (%)” value did it give?
A: 54%

Q: CC(=O)N(CCOCCF)c1cc(C)c(CCS(=O)(=O)N2CCC3(CC2)N=C(C2CCC(CCC(F)(F)F)CC2)NC3=O)c(C)c1 (stereo not drawn) [Compound 766, N-[3,5-dimethyl-4-(2-{4-oxo-2-[4-(3,3,3-trifluoro-propyl)-cyclohexyl]-1,3,8-triaza-spiro[4.5]dec-1-ene-8-sulfonyl}-ethyl)-phenyl]-N-[2-(2-fluoro-ethoxy)-ethyl]-acetamide] was tested. Which “cAMP production activity (%)” value did it give?
A: 88%

Q: CC(=O)Nc1cccc(C)c1CCS(=O)(=O)N1CCC2(CC1)N=C(C1CCCCC1)NC2=O [Compound 276, N-{2-[2-(2-cyclohexyl-4-oxo-1,3,8-triaza-spiro[4.5]dec-1-ene-8-sulfonyl)-ethyl]-3-methyl-phenyl}-acetamide] was tested. Which “cAMP production activity (%)” value did it give?
A: 63%

Q: For Cc1cc(C(=O)N(C)C)ccc1CCS(=O)(=O)N1CCC2(CC1)N=C(c1ccc(C(F)(F)F)cc1F)NC2=O [Compound 139, 4-{2-[2-(2-fluoro-4-trifluoromethyl-phenyl)-4-oxo-1,3,8-triaza-spiro[4.5]dec-1-ene-8-sulfonyl]-ethyl}-3,N,N-trimethyl-benzamide], which “cAMP production activity (%)” value is on record?
A: 64%
